What was measured:
Type in all cases: physicochemical
[1] = Chemical stability in aqueous state, 25° C., 4 weeks in complete darkness, HPLC; details: distilled water
Protocol: (§1) HPLC Analysis Conditions: • Detector: UV Absorbance (at 237 nm) • Column: Octadesyl silica gel C18 (4.6 mm×150 mm, 5 μm) • Mobile Phase: Potassium dihydrogenphosphate monobasic (0.03M): methanol=4:6 (v/v) • Flow Rate: 1.5 ml/min
The resulting aqueous solutions were stored at 25° C. for 4 weeks in complete darkness, after which a measurement was made of the contents of the salts with resort to HPLC under the same conditions as in the solid state.

[2] = physchem; details: 37 °C
[3] = Chemical stability in solid state, accelerated test at 60° C., HPLC content
Protocol: as §1

[4] = Test for hygroscopicity: water content (K. F. water %) at 25° C. under various humidity conditions; details: for water content (K. F. water %): 25° C.

Row | Structure (SMILES) | stability in aqueous state (decomposition products, content change) [1] | solubility ([2]; pH 2, aqueous buffer) [mg/mL] | solubility ([2]; pH 4, aqueous buffer) [mg/mL] | solubility ([2]; pH 6, aqueous buffer) [mg/mL] | solubility ([2]; pH 7, aqueous buffer) [mg/mL] | solubility ([2]; pH 7.4, aqueous buffer) [mg/mL] | solubility ([2]; pH 8, aqueous buffer) [mg/mL] | solubility ([2]; water) [mg/mL] | change in content, accelerated test [3] | HPLC content ([3]; 1 week) [%] | HPLC content ([3]; 2 weeks) [%] | HPLC content ([3]; 3 weeks) [%] | HPLC content ([3]; initial) [%] | water content (K. F. water %) ([4]; 25% RH, 1 week storage) [%] | water content (K. F. water %) ([4]; 60% RH, 1 week storage) [%] | water content (K. F. water %) ([4]; 75% RH, 1 week storage) [%] | water content (K. F. water %) ([4]; 95% RH, 1 week storage) [%] | water content (K. F. water %) ([4]; Initial) [%] | hygroscopicity ([4]; relative humidity 95%) [%]
1 | CCOC(=O)C1=C(COCCN)NC(C)=C(C(=O)OC)C1c1ccccc1Cl.CCS(=O)(=O)O (stereo not drawn) [Ethanesulfonate, amlodipine ethanesulfonate] | neither decomposition products nor content change is found | > 200 | > 200 | > 200 | > 200 | > 200 | > 200 | > 200 | virtually no changes | 99.6 | 99.6 | 99.5 | 99.7 | 0.08 | 0.09 | 0.13 | 0.15 | 0.12 | ≤ 0.5
2 | CCOC(=O)C1=C(COCCN)NC(C)=C(C(=O)OC)C1c1ccccc1Cl (stereo not drawn) [Besylate, amlodipine besylate, reference compound] | neither decomposition products nor content change is found | – | – | – | – | – | – | – | virtually no changes | 99.6 | 99.4 | 99.2 | 99.6 | 0.10 | 0.09 | 0.15 | 0.17 | 0.14 | –
